Values quoted from earlier work in PubChem BioAssay AID1259409 (Chemical Carcinogenesis Research Information System (CCRIS), 2018).

Tested on: rodent chemically induced tumor inhibition, incidence and multiplicity
Assay: CCRIS tumor inhibitor studies
Settings: Dose [Inhibitor]: 0

## O=C(OC[C@@H]1O[C@H](OC(=O)c2cc(O)c(O)c(OC(=O)c3cc(O)c(O)c(O)c3)c2)[C@@H](OC(=O)c2cc(O)c(O)c(OC(=O)c3cc(O)c(O)c(O)c3)c2)[C@H](OC(=O)c2cc(O)c(O)c(OC(=O)c3cc(O)c(O)c(O)c3)c2)[C@H]1OC(=O)c1cc(O)c(O)c(OC(=O)c2cc(O)c(O)c(O)c2)c1)c1cc(O)c(O)c(OC(=O)c2cc(O)c(O)c(O)c2)c1
Carcinogen: 7,12-DIMETHYLBENZ[A]ANTHRACENE : 57-97-6, 17 MG 2/WK FOR 20 WK APPLIED 24 HR POST EACH PROMOTER DOSE (STUDY DURATION: 22 WK), Route [Inhibitor]: DERMAL, Species: MOUSE, Strain/Sex: CF-1/FEMALE, Target Tissue: Type of Lesion: SKIN: PAPILLOMA, Dose [Carcinogen]: 25.6 UG IN 0.2 ML ACETONE ONCE, Promoter: 12-O-TETRADECANOYLPHORBOL-13-ACETATE, 16561-29-8
  tumour outcome (control, treated, inhibition, significance): 90%, 98%, -9%, not calculated
Carcinogen: 7,12-DIMETHYLBENZ[A]ANTHRACENE, 57-97-6, 1% IN DIET FOR 35 WK BEGINNING POST CARCINOGEN DOSE (STUDY DURATION: 36 WK), Route [Inhibitor]: ORAL, Species: RAT, Strain/Sex: SPRAGUE-DAWLEY/FEMALE, Target Tissue: Type of Lesion: EAR DUCT: TUMOR, Dose [Carcinogen]: 50 MG/KG BW IN CORN OIL ONCE, Promoter: NONE USED
  tumour outcome (control, treated, inhibition, significance): 5/15 (33%), 5/15 (33%), 0%, not significant
Carcinogen: 7,12-DIMETHYLBENZ[A]ANTHRACENE, 57-97-6, 1% IN DIET FOR 35 WK BEGINNING POST CARCINOGEN DOSE (STUDY DURATION: 36 WK), Route [Inhibitor]: ORAL, Species: RAT, Strain/Sex: SPRAGUE-DAWLEY/FEMALE, Target Tissue: Type of Lesion: MAMMARY GLAND: ADENOCARCINOMA, Dose [Carcinogen]: 50 MG/KG BW IN CORN OIL ONCE, Promoter: NONE USED
  tumour outcome (control, treated, inhibition, significance): 14/15 (93%), 12/15 (80%), 14%, not significant
Carcinogen: 7,12-DIMETHYLBENZ[A]ANTHRACENE, 57-97-6, 1% IN DIET FOR 35 WK BEGINNING POST CARCINOGEN DOSE (STUDY DURATION: 36 WK), Route [Inhibitor]: ORAL, Species: RAT, Strain/Sex: SPRAGUE-DAWLEY/FEMALE, Target Tissue: Type of Lesion: MAMMARY GLAND: FIBROADENOMA, Dose [Carcinogen]: 50 MG/KG BW IN CORN OIL ONCE, Promoter: NONE USED
  tumour outcome (control, treated, inhibition, significance): 3/15 (20%), 2/15 (13%), 35%, not significant
Carcinogen: 7,12-DIMETHYLBENZ[A]ANTHRACENE, 57-97-6, 2.5 UMOL IN 0.4 ML ACETONE 20 MIN PRIOR TO EACH PROMOTER DOSE (STUDY DURATION: 47 WK), Route [Inhibitor]: DERMAL, Species: MOUSE, Strain/Sex: CF-1/FEMALE, Target Tissue: Type of Lesion: SKIN: PAPILLOMA, Dose [Carcinogen]: 100 NMOL IN 0.2 ML ACETONE ONCE
  tumour outcome (control, treated, inhibition, significance): 94%, 61%, 35%, not calculated
Carcinogen: 7,12-DIMETHYLBENZ[A]ANTHRACENE, 57-97-6, 5 UMOL IN 0.4 ML ACETONE 20 MIN PRIOR TO EACH PROMOTER DOSE (STUDY DURATION: 47 WK), Route [Inhibitor]: DERMAL, Species: MOUSE, Strain/Sex: CF-1/FEMALE, Target Tissue: Type of Lesion: SKIN: PAPILLOMA, Dose [Carcinogen]: 100 NMOL IN 0.2 ML ACETONE ONCE
  tumour outcome (control, treated, inhibition, significance): 94%, 46%, 51%, not calculated
Carcinogen: 7,12-DIMETHYLBENZ[A]ANTHRACENE, 57-97-6, 10 UMOL IN 0.4 ML ACETONE 20 MIN PRIOR TO EACH PROMOTER DOSE (STUDY DURATION: 47 WK), Route [Inhibitor]: DERMAL, Species: MOUSE, Strain/Sex: CF-1/FEMALE, Target Tissue: Type of Lesion: SKIN: CARCINOMA, Dose [Carcinogen]: 100 NMOL IN 0.2 ML ACETONE ONCE
  tumour outcome (control, treated, inhibition, significance): 67%, 11%, 84%, not calculated
Carcinogen: 7,12-DIMETHYLBENZ[A]ANTHRACENE, 57-97-6, 10 UMOL IN 0.4 ML ACETONE 20 MIN PRIOR TO EACH PROMOTER DOSE (STUDY DURATION: 47 WK), Route [Inhibitor]: DERMAL, Species: MOUSE, Strain/Sex: CF-1/FEMALE, Target Tissue: Type of Lesion: SKIN: PAPILLOMA, Dose [Carcinogen]: 100 NMOL IN 0.2 ML ACETONE ONCE
  tumour outcome (control, treated, inhibition, significance): 94%, 43%, 54%, not calculated
Carcinogen: 7,12-DIMETHYLBENZ[A]ANTHRACENE, 57-97-6, 17 MG 2/WK FOR 2 WK APPLIED 20 MIN PRIOR TO EACH TPA DOSE (STUDY DURATION: 22 WK), Route [Inhibitor]: DERMAL, Species: MOUSE, Strain/Sex: SENCAR/FEMALE, Target Tissue: Type of Lesion: SKIN: PAPILLOMA, Dose [Carcinogen]: 6.4 UG IN 0.2 ML ACETONE ONCE, Promoter: 12-O-TETRADECANOYLPHORBOL-13-ACETATE, 16561-29-8, MEZEREIN, 34807-41-5, Promoter: 12-O-TETRADECANOYLPHORBOL-13-ACETATE, 16561-29-8, MEZEREIN, 34807-41-5
  tumour outcome (control, treated, inhibition, significance): 90%, 94%, -4%, not calculated
Carcinogen: 7,12-DIMETHYLBENZ[A]ANTHRACENE, 57-97-6, 17 MG 2/WK FOR 18 WK APPLIED 20 MIN PRIOR TO EACH MEZEREIN DOSE (STUDY DURATION: 22 WK), Route [Inhibitor]: DERMAL, Species: MOUSE, Strain/Sex: SENCAR/FEMALE, Target Tissue: Type of Lesion: SKIN: PAPILLOMA, Dose [Carcinogen]: 6.4 UG IN 0.2 ML ACETONE ONCE, Promoter: 12-O-TETRADECANOYLPHORBOL-13-ACETATE, 16561-29-8 : MEZEREIN, 34807-41-5, Promoter: 12-O-TETRADECANOYLPHORBOL-13-ACETATE, 16561-29-8 : MEZEREIN, 34807-41-5
  tumour outcome (control, treated, inhibition, significance): 90%, 62%, 31%, not calculated
Carcinogen: 7,12-DIMETHYLBENZ[A]ANTHRACENE, 57-97-6, 17 MG 2/WK FOR 20 WK APPLIED 20 MIN PRIOR TO AND 24 HR POST EACH PROMOTER DOSE (STUDY DURATION: 22 WK), Route [Inhibitor]: DERMAL, Species: MOUSE, Strain/Sex: CF-1/FEMALE, Target Tissue: Type of Lesion: SKIN: PAPILLOMA, Dose [Carcinogen]: 25.6 UG IN 0.2 ML ACETONE ONCE, Promoter: 12-O-TETRADECANOYLPHORBOL-13-ACETATE, 16561-29-8
  tumour outcome (control, treated, inhibition, significance): 90%, 16%, 82%, not calculated
